Reference: US20240239771A1, “BACTERIAL EFFLUX PUMP INHIBITORS” (priority 2020, published 2024)
Counter-ions that a name gives are not always drawn. Like-named read-outs stand apart in the source and are kept apart here. Values belong to the compound of their own block, whether it stands above or below them.

Legend:
[1] = test system: Pseudomonas aeruginosa ATCC 27853; test: Intrinsic MIC assay (CLSI broth microdilution); type: cell-based
Protocol: MIC assays were conducted in accordance with Clinical and Laboratory Standards Institute (CLSI) guidelines for broth microdilution. A 96-well plate containing cation-adjusted Mueller-Hinton (CAMH broth with 2-fold serial dilution of compounds was inoculated with log-phase bacterial at 5×10^5 CFU/mL. The final volume in each well was 100 μL. Each compound was tested in duplicate. The microtiter plates were incubated in an aerobic environment for 18 hours at 37° C. Then the bacterial growth was tested by reading the plate with a VersaMax plate reader (Molecular Devices, Inc.) at 600 nm. The MIC was defined as the lowest compound concentration that inhibited 90% of bacteria growth.
The intrinsic MIC of the experimental EPIs was tested with the method described. The 2-fold serial dilution begins with 100 μg/mL of tested compound in the first column of the 96-well plates. The following Gram-negative bacterial strain was included in these assays: Pseudomonas aeruginosa ATCC 27853.

[2] = test system: Pseudomonas aeruginosa ATCC 27853; test: Standard EPI assay: MIC of test antibiotic in absence and presence of EPI; type: cell-based; conditions: for Enhanced Antibiotic's Activity (fold increase), Ceftazidime: ceftazidime with compound at 6.25 μg/mL, relative to MIC without EPI (2 μg/mL); for Enhanced Antibiotic's Activity (fold increase), Doxycycline: doxycycline with compound at 6.25 μg/mL, relative to MIC without EPI (32 μg/mL); for Enhanced Antibiotic's Activity (fold increase), Levofloxacin: levofloxacin with compound at 6.25 μg/mL, relative to MIC without EPI (1 μg/mL)
Protocol: The EPI assay for the purposes of these studies represents a MIC assay in which the MIC of the antibiotic against the bacteria is tested in the presence of an experimental efflux pump inhibitor (EPI). The highest concentration of the EPI present in the assay typically is ½ of the intrinsic MIC of the compound. If the intrinsic MIC of the EPI is greater than 100 μg/mL, the EPI assay was tested with 50 μg/mL. Using serial dilutions of the EPI, its enhancement of antibiotic activity was then evaluated. The relative EPI activity was decided by comparing the MIC of the antibiotic in the presence of the EPI compound with the intrinsic MIC of the antibiotic alone.
The impact of the EPIs on the MIC values of three test antibiotics (levofloxacin, ceftazidime and doxycycline) against P. aeruginosa ATCC 27853 were evaluated using our standard EPI assay. All three antibiotics levofloxacin, ceftazidime and doxycycline are known substrates of efflux pumps in P. aeruginosa, and are thus well-suited to be test antibiotics to assay for EPI activity.
In our standard EPI assay, the MIC of the test antibiotic is determined in the absence and presence of sub-inhibitory concentrations of the EPI. […] The MIC of levofloxacin against P. aeruginosa ATCC 27853 in the absence of EPI is 1 μg/mL. […] Similarly, the MIC of ceftazidime against P. aeruginosa ATCC 27853 in the absence of EPI is 2 μg/mL. In the presence of 6.25 μg/mL of the Example 4, the MIC of ceftazidime was reduced to 0.5 μg/mL, a 4-fold reduction. […] For all the examples in Table 1, the potentiation activities are determined at 6.25 μg/mL.

[3] = ATCC27853, read-out: Intrinsic MIC of Compound
[4] = ATCC27853, P. aeruginosa ATCC 27853, compound alone, read-out: Intrinsic MIC of Compound

SMILES: NCCOC[C@H](N)CNC(=O)c1[nH]c2ccccc2c1-c1ccccc1 [Example 21, (R)—N-(2-amino-3-(2-aminoethoxy)propyl)-3-phenyl-1H-indole-2-carboxamide hydrogen chloride salt]
MIC [1, 3]: > 100 µg/mL
Enhanced Antibiotic's Activity (fold increase), Ceftazidime [2]: 1 fold
Enhanced Antibiotic's Activity (fold increase), Doxycycline [2]: 16 fold
Enhanced Antibiotic's Activity (fold increase), Levofloxacin [2]: 4 fold

SMILES: NCCOC[C@H](N)CNC(=O)c1[nH]c2ccc(F)cc2c1C1CCCCC1 [Example 22, (R)—N-(2-amino-3-(2-aminoethoxy)propyl)-3-cyclohexyl-5-fluoro-1H-indole-2-carboxamide hydrogen chloride salt]
MIC [1, 3]: 25 µg/mL
Enhanced Antibiotic's Activity (fold increase), Levofloxacin [2]: 32 fold

SMILES: NC[C@H]1CN[C@H](CNC(=O)c2[nH]c3ccccc3c2-c2ccc(F)cc2)[C@H]1O [Example 23, N-(((2R,3S,4S)-4-(aminomethyl)-3-hydroxypyrrolidin-2-yl)methyl)-3-(4-fluorophenyl)-1H-indole-2-carboxamide hydrogen chloride salt]
MIC [1, 3]: > 100 µg/mL
Enhanced Antibiotic's Activity (fold increase), Ceftazidime [2]: 2 fold
Enhanced Antibiotic's Activity (fold increase), Doxycycline [2]: 16 fold
Enhanced Antibiotic's Activity (fold increase), Levofloxacin [2]: 8 fold

SMILES: NC[C@H]1CN[C@H](CNC(=O)c2[nH]c3ccc(F)cc3c2-c2ccccc2)[C@H]1O [Example 24, N-(((2R,3S,4S)-4-(aminomethyl)-3-hydroxypyrrolidin-2-yl)methyl)-5-fluoro-3-phenyl-1H-indole-2-carboxamide hydrogen chloride salt]
MIC [1, 3]: > 100 µg/mL
Enhanced Antibiotic's Activity (fold increase), Levofloxacin [2]: 16 fold

SMILES: NC[C@H]1CN[C@H](CNC(=O)c2[nH]c3ccccc3c2-c2ccc(F)cc2)C1=O [Example 25, N-(((2R,4S)-4-(aminomethyl)-3-oxopyrrolidin-2-yl)methyl)-3-(4-fluorophenyl)-1H-indole-2-carboxamide hydrogen chloride salt]
MIC [1, 3]: > 100 µg/mL
Enhanced Antibiotic's Activity (fold increase), Ceftazidime [2]: 1 fold
Enhanced Antibiotic's Activity (fold increase), Doxycycline [2]: 1 fold
Enhanced Antibiotic's Activity (fold increase), Levofloxacin [2]: 1 (1) fold

SMILES: NC[C@H]1CN[C@H](CNC(=O)c2[nH]c3ccccc3c2-c2ccc(F)cc2)[C@@H]1O [Example 26, N-(((2R,3R,4S)-4-(aminomethyl)-3-hydroxypyrrolidin-2-yl)methyl)-3-(4-fluorophenyl)-1H-indole-2-carboxamide hydrogen chloride salt]
MIC [1, 3]: > 100 µg/mL
Enhanced Antibiotic's Activity (fold increase), Ceftazidime [2]: 2 fold
Enhanced Antibiotic's Activity (fold increase), Doxycycline [2]: 32 fold
Enhanced Antibiotic's Activity (fold increase), Levofloxacin [2]: 16 fold

SMILES: NCC1(O)CN[C@H](CNC(=O)c2[nH]c3ccc(F)cc3c2-c2ccccc2Cl)C1 (stereo partly drawn) [Example 27, N-(((2S)-4-(aminomethyl)-4-hydroxypyrrolidin-2-yl)methyl)-3-(2-chlorophenyl)-5-fluoro-1H-indole-2-carboxamide hydrogen chloride salt]
MIC [1, 3]: > 100 µg/mL
Enhanced Antibiotic's Activity (fold increase), Levofloxacin [2]: 1 (1) fold

SMILES: NCCC(O)[C@@H](N)CNC(=O)c1cc2cccc(-c3ccc(F)cc3)c2[nH]1 (stereo partly drawn) [Example 28, N-((2S)-2,5-diamino-3-hydroxypentyl)-7-(4-fluorophenyl)-1H-indole-2-carboxamide hydrogen chloride salt]
MIC [1, 3]: 50 µg/mL
Enhanced Antibiotic's Activity (fold increase), Levofloxacin [2]: 16 fold

SMILES: NCC(O)C[C@H](N)CNC(=O)c1[nH]c2ccccc2c1Sc1cccc(F)c1 (stereo partly drawn) [Example 29, N-((2S)-2,5-diamino-4-hydroxypentyl)-3-((3-fluorophenyl)thio)-1H-indole-2-carboxamide hydrogen chloride salt]
MIC [1, 3]: 200 µg/mL
Enhanced Antibiotic's Activity (fold increase), Ceftazidime [2]: 2 fold
Enhanced Antibiotic's Activity (fold increase), Doxycycline [2]: 64 fold
Enhanced Antibiotic's Activity (fold increase), Levofloxacin [2]: 32 fold

SMILES: NC[C@@H](O)C[C@H](N)CNC(=O)c1cc2ccc(-c3ccc(F)cc3)cc2[nH]1 [Example 30, 6-(4-fluorophenyl)-N-((2S)-2,5-diamino-4-hydroxypentyl)-1H-indole-2-carboxamide hydrogen chloride salt]
MIC [1, 3]: 50 µg/mL
Enhanced Antibiotic's Activity (fold increase), Levofloxacin [2]: 16 fold

SMILES: NCCOC[C@H](N)CNC(=O)c1cc2ccc(-c3ccc(F)cc3)cc2[nH]1 [Example 31, (R)—N-(2-amino-3-(2-aminoethoxy)propyl)-6-(4-fluorophenyl)-1H-indole-2-carboxamide hydrogen chloride salt]
MIC [1, 3]: > 200 µg/mL
Enhanced Antibiotic's Activity (fold increase), Ceftazidime [2]: 4 fold
Enhanced Antibiotic's Activity (fold increase), Doxycycline [2]: 32 fold
Enhanced Antibiotic's Activity (fold increase), Levofloxacin [2]: 8 fold

SMILES: NCCOC[C@H](N)CNC(=O)c1cc2ccc(-c3ccccc3)cc2[nH]1 [Example 32, (R)—N-(2-amino-3-(2-aminoethoxy)propyl)-6-phenyl-1H-indole-2-carboxamide hydrogen chloride salt]
MIC [1, 3]: > 200 µg/mL
Enhanced Antibiotic's Activity (fold increase), Levofloxacin [2]: 4 fold

SMILES: Cc1c(C(=O)NC[C@@H](N)COCCN)[nH]c2cccc(-c3ccc(F)cc3)c12 [Example 33, (R)—N-(2-amino-3-(2-aminoethoxy)propyl)-4-(4-fluorophenyl)-3-methyl-1H-indole-2-carboxamide hydrogen chloride salt]
MIC [1, 3]: 100 µg/mL
Enhanced Antibiotic's Activity (fold increase), Doxycycline [2]: 128 fold
Enhanced Antibiotic's Activity (fold increase), Levofloxacin [2]: 32 fold

SMILES: NCCC[C@H](N)COC[C@H](N)CNC(=O)c1[nH]c2ccccc2c1-c1ccc(F)cc1 [Example 34, N—((R)-2-amino-3-(((S)-2,5-diaminopentyl)oxy)propyl)-3-(4-fluorophenyl)-1H-indole-2-carboxamide hydrogen chloride salt]
MIC [1, 3]: > 200 µg/mL
Enhanced Antibiotic's Activity (fold increase), Doxycycline [2]: 32 fold
Enhanced Antibiotic's Activity (fold increase), Levofloxacin [2]: 8 fold

MIC [1, 4]: 200 µg/mL
SMILES: NCC(O)[C@H](N)CNC(=O)c1[nH]c2ccccc2c1-c1ccc(F)cc1 (stereo partly drawn) [Example 35, N-((2R)-2,4-diamino-3-hydroxybutyl)-3-(4-fluorophenyl)-1H-indole-2-carboxamide]
Enhanced Antibiotic's Activity (fold increase), Levofloxacin [2]: 4 fold

MIC [1, 4]: 100 µg/mL
SMILES: NCC(O)[C@H](N)CNC(=O)c1[nH]c2ccccc2c1C1CCCC1 (stereo partly drawn) [Example 36, 3-cyclopentyl-N-((2R)-2,4-diamino-3-hydroxybutyl)-1H-indole-2-carboxamide]
Enhanced Antibiotic's Activity (fold increase), Ceftazidime [2]: 2 fold
Enhanced Antibiotic's Activity (fold increase), Doxycycline [2]: 32 fold
Enhanced Antibiotic's Activity (fold increase), Levofloxacin [2]: 8 fold
